Results published in PubChem BioAssay AID1896 (NMMLSC, 2009).
Calls of active or inactive are those of the source. The rule behind the calls is not given here.

Target: Mitogen-activated protein kinase kinase kinase 3 (Homo sapiens) (UniProt Q99759)
Assay: MEKK3 PB1-MEK5 interaction blockers – biochemical, bead multiplex flow cytometry, wildtype, dose response (AID 1896)
Conditions: bead-based multiplex flow cytometry, MEK5-MEKK3 PB1 binding; for Ki: measured here: Ki from EC50

Chain of Mitogen-activated protein kinase kinase kinase 3 (Homo sapiens) (Q99759 whole entry, looked up): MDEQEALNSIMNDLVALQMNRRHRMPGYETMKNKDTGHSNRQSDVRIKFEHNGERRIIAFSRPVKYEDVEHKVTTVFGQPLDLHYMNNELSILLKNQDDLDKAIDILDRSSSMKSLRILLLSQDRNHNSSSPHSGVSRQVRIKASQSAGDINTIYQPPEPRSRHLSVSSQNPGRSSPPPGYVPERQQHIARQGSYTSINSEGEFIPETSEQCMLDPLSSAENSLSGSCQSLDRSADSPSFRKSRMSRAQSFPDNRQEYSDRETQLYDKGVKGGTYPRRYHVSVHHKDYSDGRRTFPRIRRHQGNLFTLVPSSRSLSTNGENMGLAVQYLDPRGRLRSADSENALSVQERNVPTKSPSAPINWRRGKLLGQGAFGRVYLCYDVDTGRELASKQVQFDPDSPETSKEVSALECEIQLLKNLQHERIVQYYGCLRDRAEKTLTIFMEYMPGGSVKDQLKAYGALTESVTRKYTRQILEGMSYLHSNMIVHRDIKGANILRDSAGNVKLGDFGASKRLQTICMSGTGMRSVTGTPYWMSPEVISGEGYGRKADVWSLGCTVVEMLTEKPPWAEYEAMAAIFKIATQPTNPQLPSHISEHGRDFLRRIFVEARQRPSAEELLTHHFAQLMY

Row | EC50 | Ki | SMILES
1 | > 30 µM (inactive) |  | CCCCCCCCCCOC(=O)Cn1c(COc2ccccc2)[n+](C)c2ccccc21
2 | > 30 µM (inactive) |  | CCN1/C(=C/C=C/C=C/C=C/c2sc3ccccc3[n+]2CC)Sc2ccccc21
3 | > 30 µM (inactive) |  | CN(C)CCCn1c(SCC(=O)Nc2nc(-c3cccc(Br)c3)cs2)nc2ccccc2c1=O
4 | > 30 µM (inactive) |  | CCCCCc1cc(=O)oc2c(C(CCN3CCCC3)c3ccc(N(C)C)cc3)c(OC)cc(OC)c12 (configuration not stated)
5 | > 30 µM (inactive) |  | CCCCCCCCCCOC(=O)Cn1c(COc2ccc(OC)cc2)[n+](C)c2ccccc21
6 | > 30 µM (inactive) |  | Cc1ccccc1OCC(O)CNC1CCC(NCC(O)COc2ccccc2C)CC1 (configuration not stated)
7 | > 30 µM (inactive) |  | CCN1CCN(Cc2ccc(NC(=O)c3cc(NC(=O)C(=O)c4c[nH]c5ccccc45)cc(OC)c3)cc2C(F)(F)F)CC1
8 | > 30 µM (inactive) |  | COc1ccc(-c2csc(N(CCCN(C)C)C(=O)c3ccccc3Cl)n2)cc1
9 | 8.73 µM | 7.47 µM | CNc1nc(-c2c[nH]c3ccccc23)cs1
10 | > 30 µM (inactive) |  | COC(=O)C1=C(C)N(Cc2ccccc2)C(=NCc2cccc(C(F)(F)F)c2)N[C@H]1c1cccc(F)c1
11 | 21.1 µM | 18.1 µM | Nc1ccc(Nc2ccccc2N)cc1
12 | > 30 µM (inactive) |  | OCCCCNCc1ccc(OCc2ccc(Cl)cc2Cl)cc1
13 | 3.81 µM | 3.26 µM | CCN(CC)CCOC(=O)c1ccc(N/C=C(/C#N)c2nc(-c3cc4ccccc4oc3=O)cs2)cc1
14 | > 30 µM (inactive) |  | CCOc1cccc2sc(N(CCCN(C)C)C(=O)c3ccc(S(=O)(=O)N4CCc5ccccc5C4)cc3)nc12
15 | > 30 µM (inactive) |  | CCOc1ccc(C2=C/C(=C/c3cccnc3)C(=O)O2)cc1
16 | > 30 µM (inactive) |  | CCN(CC)CCOC(=O)c1ccc(N/C=C(/C#N)c2nc(-c3ccc(OC)cc3)cs2)cc1
17 | > 30 µM (inactive) |  | CCc1ccc(Nc2n[n+](-c3ccccc3)c(-c3cc(OC)c(OC)cc3Br)s2)cc1
18 | 0.27 µM | 0.23 µM | CCC(=C/c1sc2ccc3ccccc3c2[n+]1C)/C=C1\Sc2ccc3ccccc3c2N1C
19 | 5.57 µM | 4.77 µM | Cc1cc2ccccc2n1CCNC(=O)c1ccccc1
20 | > 30 µM (inactive) |  | CCN(CC)CCNC(=O)c1ccc(NC(=O)c2cn(-c3ccccc3)nc2-c2cccs2)cc1
21 | 3.4 µM | 2.91 µM | CCN1C(c2ccccc2)=C(c2ccccc2)S/C1=C/C=C1\SC(=S)N(C)C1=O

Row | EC50 | Ki | SMILES
22 | > 30 µM (inactive) |  | Cc1cc2ccccc2n1CCNC(=O)c1cccs1
23 | > 30 µM (inactive) |  | N=C(N)SCc1cn(-c2ccccc2)nc1-c1ccc(Br)cc1
24 | 1.63 µM | 1.4 µM | N#CC(C#N)=c1ccc2c(c1)N1C(c3ccccc3)=CC(c3ccccc3)C3CCCCC31N=2 (configuration not stated)
25 | > 30 µM (inactive) |  | COc1cc(CNCCc2c[nH]c3ccccc23)ccc1OCc1ccccc1F
26 | > 30 µM (inactive) |  | CCCCCc1cc(=O)oc2c(C(CCN3CCCCC3)c3ccc(OC)cc3)c(OC)cc(OC)c12 (configuration not stated)
27 | > 30 µM (inactive) |  | COc1ccccc1N(CN1C(=O)c2ccccc2C1=O)C(=O)c1cccc(C)c1
28 | > 30 µM (inactive) |  | COc1ccc(C2NCCc3c2[nH]c2ccccc32)cc1CN1CCc2cc(OC)c(OC)cc2C1C (configuration not stated)
29 | > 30 µM (inactive) |  | FC(F)(F)c1cccc(NC(=S)N(CCCN2CCCC2)Cc2cccn2Cc2ccc(Cl)cc2)c1
30 | > 30 µM (inactive) |  | O=C1c2ccccc2-c2onc3ccc(NCc4ccco4)c1c23
31 | > 30 µM (inactive) |  | CCN1CCN(Cc2ccc(NC(=O)c3ccc(C)c(NC(=O)C(=O)c4c[nH]c5ccccc45)c3)cc2C(F)(F)F)CC1
32 | > 30 µM (inactive) |  | CCCCCCCCCCOC(=O)Cn1c(COc2cccc(OC)c2)[n+](C)c2ccccc21
33 | > 30 µM (inactive) |  | CCN1CCN(CCNC(=O)c2ccc(/C=C3/Sc4ccccc4N(Cc4cccc(C)c4)C3=O)cc2)CC1
34 | > 30 µM (inactive) |  | CCCCCCCCCC[N+](C)(C)CC/C=C1/c2ccccc2Sc2ccc(Cl)cc21
35 | 11.9 µM | 10.1 µM | Cc1cc2ccccc2n1CCNC(=O)c1ccc(Br)o1
36 | > 30 µM (inactive) |  | COCCNC(=O)CN(c1cc(Cl)ccc1OC)S(=O)(=O)c1ccc(C)c([N+](=O)[O-])c1
37 | > 30 µM (inactive) |  | NC(N)=N/N=C/c1ccc(OCc2ccc(Cl)cc2Cl)cc1
38 | > 30 µM (inactive) |  | CCCCCCCCCCOC(=O)Cn1c(COc2ccccc2OC)[n+](C)c2ccccc21
39 | > 30 µM (inactive) |  | CCN1CCN(Cc2ccc(NC(=O)c3cc(NC(=O)c4cnn(-c5ccccc5)c4N)cc(OC)c3)cc2C(F)(F)F)CC1
40 | > 30 µM (inactive) |  | O=C(NNc1c2ccccc2nc2ccccc12)c1cc2ccccc2cc1O
41 | > 30 µM (inactive) |  | CCc1ccc(Nc2n[n+](-c3ccccc3)c(-c3ccc(OCc4ccccc4)cc3)s2)cc1
42 | > 30 µM (inactive) |  | CCN(CC)CCOC(=O)c1ccc(NC(=O)c2cn(-c3ccccc3)nc2-c2cccs2)cc1

The remaining lines, values behind:

Row | SMILES | EC50 | Ki
43 | S=c1[nH]nc(-c2ccc(Cl)cc2)n1-c1ccc2c(c1)OCCO2 | > 30 µM (inactive) | 
44 | CCN1/C(=C/c2ccc3cc(C)ccc3[n+]2CC)Sc2cc(C)c(C)cc21 | 5.79 µM | 4.96 µM
45 | CN1C(=CC=C2C=C(I)C(=O)C(I)=C2)C(C)(C)c2ccccc21 | > 30 µM (inactive) | 
46 | C#CCOCCOCCOCCNc1nc(N2CCN(C(=O)[C@H]([C@@H](C)CC)n3cc([C@@H](N)CO)nn3)CC2)nc(N2CCN(C(=O)[C@H](Cc3cc4ccccc4[nH]3)n3cc([C@@H](N)Cc4ccc(O)cc4)nn3)CC2)n1 | 8.28 µM | 7.08 µM
47 | CCCCCCCCCCCCCCCC[n+]1ccc(/C=N/O)cc1 | > 30 µM (inactive) | 
48 | NC(=NCCCCCCN=C(N)/N=C(\N)Nc1ccc(Cl)cc1)/N=C(\N)Nc1ccc(Cl)cc1 | > 30 µM (inactive) | 
49 | CNC(=O)C(=O)Nc1c(C)cc(C)cc1C | > 30 µM (inactive) | 
50 | COc1ccc(N2CC(C(=O)Nc3nnc(SCc4ccccn4)s3)CC2=O)cc1 (configuration not stated) | > 30 µM (inactive) | 
51 | C#CCOCCOCCOCCNc1nc(N2CCN(C(=O)[C@H](Cc3cc4ccccc4[nH]3)n3cc([C@@H](N)C(C)CC)nn3)CC2)nc(N2CCN(C(=O)[C@H](Cc3cc4ccccc4[nH]3)n3cc([C@@H](N)Cc4ccc(O)cc4)nn3)CC2)n1 (some centres not stated) | > 30 µM (inactive) | 
52 | C#CCOCCOCCOCCNc1nc(N2CCN(C(=O)C(Cc3ccc(O)cc3)n3cc(C(N)CC(C)C)nn3)CC2)nc(N2CCN(C(=O)C(Cc3cc4ccccc4[nH]3)n3cc(C(N)C(C)CC)nn3)CC2)n1 (configuration not stated) | > 30 µM (inactive) | 
53 | CCOC(=O)c1c(C)n(-c2ccc(C)cc2)c2ccc(OCC(O)CN3CCN(C)CC3)cc12 (configuration not stated) | > 30 µM (inactive) | 
54 | CCN1/C(=C\c2ccc3cc(C)ccc3[n+]2CC)Sc2cc(C)c(C)cc21 | 9.27 µM | 7.93 µM
55 | CN(C)CCCNc1cc(C(C)(C)C)nc2c(-c3ccc(Cl)cc3)cnn12 | > 30 µM (inactive) | 
56 | CCCOc1ccc2c(c1)C(=NN=C(N)N)c1cc(OCCC)ccc1-2 | > 30 µM (inactive) | 
57 | O=C(Nc1ccc(C2=NCCN2)cc1)c1ccc(C(=O)Nc2ccc(C3=NCCN3)cc2)c([N+](=O)[O-])c1 | 11.9 µM | 10.2 µM
58 | Cc1ccnc(NC(=O)C2(c3cccs3)CCOCC2)c1 | > 30 µM (inactive) | 
59 | O=C(OCC1O[C@@H](OC(=O)c2cc(O)c(O)c(O)c2)[C@@H](OC(=O)c2cc(O)c(O)c(O)c2)[C@@H](OC(=O)c2cc(O)c(O)c(O)c2)[C@@H]1OC(=O)c1cc(O)c(O)c(O)c1)c1cc(O)c(O)c(O)c1 (some centres not stated) | > 30 µM (inactive) | 
60 | Cc1cc(N=Nc2ccc(C)c(N=Nc3cc(C)c(N)cc3N)c2)c(N)cc1N | > 30 µM (inactive) | 
61 | NC(=O)CSc1nnc(Cc2ccc3c(c2)OCO3)o1 | > 30 µM (inactive) | 

Row | SMILES | EC50 | Ki
62 | CN1C(=O)/C(=C\c2ccc(-c3ccccc3)o2)SC1=S | 10.2 µM | 8.75 µM
63 | C#CCOCCOCCOCCNc1nc(N2CCN(C(=O)[C@H](Cc3ccc(O)cc3)n3cc([C@@H](N)CC(C)C)nn3)CC2)nc(N2CCN(C(=O)[C@H](Cc3cc4ccccc4[nH]3)n3cc([C@@H](N)CC(C)C)nn3)CC2)n1 | > 30 µM (inactive) | 
64 | C=CCN1C(=O)/C(=C/c2ccc(-c3ccc(F)cc3)o2)SC1=S | > 30 µM (inactive) | 
65 | CCCCCc1cc(=O)oc2c(C(CCN3CCCC(C)C3)c3ccc4c(c3)OCO4)c(OC)cc(OC)c12 (configuration not stated) | > 30 µM (inactive) | 
66 | C#CCOCCOCCOCCNc1nc(N2CCN(C(=O)[C@H](CCCCN)n3cc([C@@H](N)CC(C)C)nn3)CC2)nc(N2CCN(C(=O)[C@H](Cc3cc4ccccc4[nH]3)n3cc([C@@H](N)Cc4ccc(O)cc4)nn3)CC2)n1 | > 30 µM (inactive) | 
67 | CCn1cc(C(=O)O)c(=O)c2cc(F)c(N3CCN(C(=S)NC(=O)c4ccc(Br)cc4)CC3)cc21 | > 30 µM (inactive) | 
68 | Cc1cc2cc(CNC(=O)NC3CCCCC3)ccc2[nH]1 | 3.98 µM | 3.41 µM
69 | CN1CCN(CC(=O)N2CCn3c4c(c5cc(C6CCCCC6)ccc53)CCCC42)CC1 (configuration not stated) | > 30 µM (inactive) | 
70 | CCOC(=O)N1CCN(c2c(N3CCN(c4ccccc4F)CC3)c(=O)c2=O)CC1 | > 30 µM (inactive) | 
71 | COC(=O)c1c(C)oc(C)c1S(=O)(=O)N(Cc1ccccc1)C(C)C | > 30 µM (inactive) | 
72 | CNC[C@H](CC1CCCCC1)NC[C@H](Cc1ccccc1)NCCC12CC3CC(CC(C3)C1)C2 | > 30 µM (inactive) | 
73 | Cc1nn2c(N)csc2nc1=O | 4.14 µM | 3.54 µM
74 | CN1CCN(c2ccc(NC(=O)c3ccc(-c4ccc(Cl)cc4)o3)cc2)CC1 | 2.68 µM | 2.29 µM
75 | Nc1cc2nc[nH]c2cc1N | 7.87 µM | 6.73 µM
76 | CCCN1C(=O)/C(=C\C=C2/Sc3ccccc3N2CC)SC1=S | > 30 µM (inactive) | 
77 | O=C(c1cc(COc2c(F)cccc2F)on1)N1C[C@H]2CC[C@H]1C2 | > 30 µM (inactive) | 
78 | C#CCOCCOCCOCCNc1nc(N2CCN(C(=O)[C@H](Cc3ccc(O)cc3)n3cc([C@@H](N)CC(C)C)nn3)CC2)nc(N2CCN(C(=O)[C@H](Cc3ccc(O)cc3)n3cc([C@@H](N)CC(C)C)nn3)CC2)n1 | > 30 µM (inactive) | 
79 | CCN1/C(=C/c2ccc3cc(C)cc(C)c3[n+]2CC)Sc2cc(C)ccc21 | 10.6 µM | 9.04 µM
